The test system of the assay is HCT116 cells. As to the kind of experiment: Cell viability assay (CellTiter-Glo, 72 hours) in HCT116 human colorectal cancer cells. Type of assay: cell-based. The procedure:
Cell culture: The HCT116 cell line was obtained from ATCC and cultured in Dulbecco's Modified Eagle's Medium (DMEM)-high glucose (Sigma Aldrich #D5796) supplemented with 10% fetal bovine serum (FBS) (Sigma-Aldrich #F2442) and 2 mM L-Glutamine (Sigma Aldrich #G7513). Cells were cultured at 37° C. in 5% CO2. The identity of all cell lines was confirmed by short tandem repeat (STR) analysis and confirmed to be mycoplasma-free using a PCR based assay (Genatlantis).
Cell viability assay: In 96-well assay plates (Corning #2903), 2,000 cells were plated per well in 100 μL of medium and allowed to adhere overnight. The next day, compounds suspended in DMSO were dispensed to the assayed wells using a D300e Digital Dispenser (Tecan). All wells were normalized to 0.5% DMSO. 72 hours after incubation at 37° C. in 5% CO2, cell viability was assayed using an ATP-based luminescent viability assay, CellTiter-Glo (Promega #G8462). Substrate was mixed 1:1 with phosphate-buffered saline (PBS) supplemented with 1% Triton X-100, and 40 μL of this mixture was added to the assay wells. Plates were shaken on a microplate shaker for 10 minutes at room temperature. Luminescence (CellTiter-Glo) was recorded using a Synergy 2 microplate reader (BioTek). In Prism 9 software (GraphPad), ten-point dose response curves were plotted with baseline-correction to the vehicle control well, and IC50 values were calculated by curve fitting using asymmetric (five parameter), least squares fit.

[1] abbreviates: Table 8, analogs of scaffold drawing 43 defined by R^2, R^3, X/Y, W, read-out: Activity (IC50 class, cell viability assay).
The mark [2] stands for this setting: Table 3, HCT116, 72 hours, read-out: Activity.
Setting [3] is: Homo sapiens, HCT-116, Table 6, HCT116, 72 hours, read-out: Activity.
Setting [4] is: cell viability assay, Table 10 analogs of scaffold drawing 45 defined by R2, R3, X/Y, W, read-out: Activity.
Where [5] appears, read: Table 5, HCT116, 72 hours, read-out: Activity.
[6] abbreviates: Table 4, HCT116, 72 hours, read-out: Activity.
[7] abbreviates: Table 7, cell viability assay, CellTiter-Glo, 72 hours, scaffold drawing 42 with R^2, R^3, X/Y, Z, read-out: Activity.
Setting [8] is: Table 6, HCT116, 72 hours, read-out: Activity.
[9] abbreviates: Homo sapiens, HCT-116, Table 5, HCT116, 72 hours, read-out: Activity.

Where two headings read alike, the source gives them in different places.

With `O=C(Nc1cnc2c(c1)Sc1cc(Cl)ccc1C(=O)N2CC#CCl)C1CC2(CC(=NO)C2)C1` (stereo not drawn), under setting [1], the IC50 was below 500 nM.

As for `CC#CCN1C(=O)c2ccccc2Sc2cc(NC(=O)C3CC3)cnc21` [—CH2CCMe; cPr; CH/CH; N], under setting [1], the IC50 is below 500 nM.

Take `CC#CCN1C(=O)c2ccccc2Sc2cc(NC(=O)N[C@H]3C[C@H](OC)C3)ccc21` [Table 3: —CH2CCMe; trans-3-MeOcBu; CH/CH]: the IC50 under setting [2] is below 500 nM.

For `C#CCN1C(=O)c2ccccc2Sc2cc(NC(=O)C3CC4(CC(=NO)C4)C3)cnc21` (stereo not drawn), the IC50 under setting [1] is below 500 nM.

`CC#CCN1C(=O)c2ccccc2Sc2cc(NC3CCCC3)cnc21` [Table 6: —CH2CCMe; cPent; CH/N; S, 11-(But-2-yn-1-yl)-3-(cyclopentylamino)benzo[f]pyrido[3,2-b][1,4]thiazepin-10(11H)-one]: under setting [3], the IC50 is below 500 nM.

For the molecule `CC#CCN1C(=O)c2cc(F)ccc2Sc2cc(NC(=O)C3CC(COC)C3)cnc21` (stereo not drawn) [—CH2CCMe; 3-MeOCH2-cBu; CH/CF; N], the IC50 under setting [1] is below 500 nM.

As to `CO[C@H]1C[C@H](C(=O)Nc2cnc3c(c2)Sc2ccccc2C(=O)N3CC#CCl)C1` [—CH2CCCl; trans-3-MeOcBu; CH/CH; N], the IC50 runs as follows: under setting [1], below 500 nM; under setting [4], below 500 nM.

For `CC#CCN1C(=O)c2ccccc2Sc2cc(NC(=O)C3CC4(CCC4)C3)ccc21`, the IC50 under setting [1] is below 500 nM.

Take `C#CCN1C(=O)c2ccccc2Sc2cc(Nc3ncc(C)nc3C)ccc21`: the IC50 under setting [5] was below 500 nM.

Take `CC#CCN1C(=O)c2ccccc2Sc2cc(NC(=O)c3ccc(OC)nc3)cnc21` [—CH2CCMe; 6-MeO-pyrid-3-yl; CH/CH; N]: the IC50 under setting [1] was below 500 nM.

`COC[C@@H]1C[C@H]1C(=O)Nc1ccc2c(c1)Sc1cc(Cl)ccc1C(=O)N2CC#CCl` (relative stereo) [—CH2CCCl; trans-2-MeOCH2-cPr; CCl/CH; CH]: the IC50 under setting [1] is below 500 nM.

Take `CC#CCN1C(=O)c2ccccc2Sc2cc(NC(=S)Nc3cccc(OCF)c3)ccc21` [Table 4: —CH2CCMe; 3-FH2COPh; CH]: under setting [6], the IC50 was below 500 nM.

Turning to `COCC=CC(=O)Nc1ccc2c(c1)Sc1ccccc1C(=O)N2CC#CC(F)(F)F` [—CH2CCCF3; CH═CHCH2OMe; CH/CH; CH], the IC50 under setting [1] is below 500 nM.

For the molecule `CC#CCN1C(=O)c2ccccc2Sc2cc(NC(=O)c3ccc(OC)cc3)cnc21` [—CH2CCMe; 4-MeOPh; CH/CH; N], the IC50 under setting [1] was below 500 nM.

In the case of `CC#CCN1C(=O)c2ccccc2Sc2cc(NC(=O)[C@@H]3C[C@H]3C(=O)OC)cnc21` (relative stereo) [—CH2CCMe; trans-2-MeO2C-cPr; CH/CH; N], under setting [1], the IC50 is below 500 nM.

For `CC=CCN1C(=O)c2ccccc2Sc2cc(Nc3ncccc3C)cnc21`, the IC50 under setting [5] was below 500 nM.

Regarding `CC#CCN1C(=O)c2ccccc2Sc2cc(NC(=O)[C@@H]3C[C@H]3COC)cnc21` (relative stereo) [—CH2CCMe; trans-2-MeOCH2-cPr; CH/CH; N], the IC50 under setting [1] is below 500 nM.

For `CC#CCN1C(=O)c2ccccc2Sc2cc(NC(=S)N3CCCC3)ccc21`, the IC50 (Table 2, HCT116, 72 hours, read-out: Activity) is below 500 nM.

On to `CC=CCN1C(=O)c2ccccc2Sc2cc(Nc3ncc(C)cc3C)ccc21`, for which the IC50 under setting [5] was below 500 nM.

Consider `COCCN1C(=O)c2ccccc2Sc2cc(NC(=O)c3cc(C)oc3C)ccc21` [—(CH2)2OMe; 2,5-Me2-furan-3-yl; CH/CH; S], for which, under setting [7], the IC50 fell in the range of 1000 to 5000 nM.

As to `O=C1c2ccccc2Sc2cc(NC3CC4(COC4)C3)cnc2N1CC#CCl`, the IC50 under setting [8] was below 500 nM.

In the case of `CC#CCN1C(=O)c2ccccc2Sc2cc(NC(=O)N3CCCCC3)ccc21`, the IC50 (Table 1, HCT116, 72 hours, read-out: Activity) was below 500 nM.

On to `C#CCN1C(=O)c2ccccc2Sc2cc(NC3CC(O)C3)ccc21` (stereo not drawn) [Table 6: —CH2CCH; 3-HOcBu; CH/CH; S], for which the IC50 under setting [8] is below 500 nM.

With `CC#CCN1C(=O)c2ccccc2Sc2cc(NC(=O)Nc3ccc4oc(C)nc4c3)ccc21`, the IC50 under setting [2] is below 500 nM.

As to `C#CCOCCN1C(=O)c2ccccc2Sc2cc(NC(=O)c3ccc(N=[N+]=[N-])cc3)ccc21` [—(CH2)2OCH2CCH; 4-N3Ph; CH/CH; S], the IC50 under setting [7] is below 500 nM.

For the molecule `CNC(=O)CCCCCN1C(=O)c2ccccc2Sc2cc(NC(=O)c3ccoc3)ccc21` [—(CH2)5CONHMe; furan-3-yl; CH/CH; S], the IC50 under setting [7] lay within 1000 to 5000 nM.

Turning to `CC#CCN1C(=O)c2ccc(F)cc2Sc2cc(Nc3nccnc3OC)ccc21` [10-(But-2-yn-1-yl)-3-fluoro-7-((3-methoxypyrazin-2-yl)amino)dibenzo[b,f][1,4]thiazepin-11 (10H)-one], the IC50 under setting [9] is 500 to 1000 nM.

In the case of `CC#CCN1C(=O)c2ccccc2Sc2cc(NC3CC(OC)C3)ccc21` (stereo not drawn) [Table 6: —CH2CCMe; 3-MeOcBu; CH/CH; S, 10-(But-2-yn-1-yl)-7-((3-methoxycyclobutyl)amino)dibenzo[b,f][1,4]thiazepin-11 (10H)-one], under setting [3], the IC50 was below 500 nM.

Turning to `CC#CCN1C(=O)c2ccccc2Sc2cc(NC(=S)Nc3cccc(OCF)c3)cnc21` [Table 4: —CH2CCMe; 3-FH2COPh; N], the IC50 under setting [6] is below 500 nM.

`CC#CCN1C(=O)c2cc(F)ccc2Sc2cc(NC(=O)c3cccc(OC)c3)ccc21` [—CH2CCMe; 3-MeOPh; CH/CF; CH]: the IC50 under setting [1] is below 500 nM.

Consider `CC#CCN1C(=O)c2ccccc2Sc2cc(NC(=O)C3CNC(=O)C3)ccc21` (stereo not drawn) [—CH2CCMe; 5-oxopyrrolidin-3-yl; CH/CH; CH], for which the IC50 under setting [1] is below 500 nM.

On to `C#CCN1C(=O)c2ccccc2Sc2cc(Nc3cccnn3)ccc21`, for which the IC50 under setting [5] is below 500 nM.

Consider `CC#CCN1C(=O)c2ccccc2Sc2cc(Nc3ncc(C)cc3C)ccc21` [10-(But-2-yn-1-yl)-7-((3,5-dimethylpyridin-2-yl)amino)dibenzo[b,f][1,4]thiazepin-11 (10H)-one], for which the IC50 under setting [9] was below 500 nM.

On to `O=C(Nc1cnc2c(c1)Sc1cc(Cl)ccc1C(=O)N2CC#CCl)C1CC1CO` (stereo not drawn) [—CH2CCCl; trans-2-HOCH2-cPr; CCl/CH; N], for which the IC50 under setting [1] is below 500 nM.

As for `COCCN1C(=O)c2ccccc2Sc2cc(NC(=O)c3ccccc3OC)ccc21` [—(CH2)2OMe; 2-MeOPh; CH/CH; S], the IC50 under setting [7] was below 500 nM.

Consider `CC#CCN1C(=O)c2ccccc2Sc2cc(NC(=O)C3CC4(CC(=O)C4)C3)cnc21`, for which the IC50 under setting [1] was below 500 nM.

On to `CC#CCN1C(=O)c2ccccc2Sc2cc(NC(=S)NC3CC(COC)C3)cnc21` (stereo not drawn) [Table 4: —CH2CCMe; 3-MeOCH2-cBu; N], for which, under setting [6], the IC50 is below 500 nM.

For the molecule `COCCN1C(=O)c2ccccc2Sc2cc(NC(=O)c3ccc(OCF)cc3)ccc21` [—(CH2)2OMe; 4-FH2COPh; CH/CH; S], the IC50 under setting [7] is below 500 nM.

As for `COCCN1C(=O)c2ccccc2Sc2cc(NC(=O)c3ccc(OC(F)F)c(F)c3)ccc21` [—(CH2)2OMe; 3-F,4-F2HCOPh; CH/CH; S], the IC50 under setting [7] lay in the range of 1000 to 5000 nM.

Consider `CC=CCN1C(=O)c2ccccc2Sc2cc(NC(=O)c3ccc4scnc4c3)ccc21`, for which the IC50 under setting [7] was below 500 nM.

As for `COCCN1C(=O)c2ccccc2Sc2cc(NC(=O)c3ccc4nccn4c3)ccc21`, the IC50 under setting [7] lay in the range of 1000 to 5000 nM.

On to `COCCN1C(=O)c2ccccc2Sc2cc(NC(=O)c3cccc(OCF)c3)ccc21` [—(CH2)2OMe; 3-FH2COPh; CH/CH; S], for which the IC50 under setting [7] is below 500 nM.

In the case of `COCCN1C(=O)c2ccc(F)cc2Sc2cc(NC(=O)c3ccoc3)ccc21` [—(CH2)2OMe; furan-3-yl; CF/CH; S], the IC50 under setting [7] was below 500 nM.

Regarding `CC#CCN1C(=O)c2ccccc2Sc2cc(Nc3ncc(C)cc3F)cnc21`, under setting [5], the IC50 is below 500 nM.

For `CC#CCN1C(=O)c2ccccc2Sc2cc(NC(=O)Nc3ccc4oc(=O)n(C)c4c3)cnc21`, the IC50 under setting [2] was below 500 nM.

For the molecule `Cc1cnc(C)c(Nc2ccc3c(c2)Sc2ccccc2C(=O)N3CC#CCl)n1`, the IC50 under setting [5] is below 500 nM.

`Cc1ccc(F)c(Nc2ccc3c(c2)Sc2ccccc2C(=O)N3CC#CCl)n1`: the IC50 under setting [5] was below 500 nM.

As to `CC#CCN1C(=O)c2ccccc2C(C)c2cc(NC(=O)C3COC3)ccc21` (stereo not drawn) [Table 9: —CH2CCMe; oxetan-3-yl; CHMe], the IC50 (Table 9, HCT116, 72 hours, read-out: Activity) was below 500 nM.

Take `CC#CCN1C(=O)c2ccccc2Sc2cc(NC3COCC3OC)ccc21` (stereo not drawn) [10-(But-2-yn-1-yl)-7-((4-methoxytetrahydrofuran-3-yl)amino)dibenzo[b,f][1,4]thiazepin-11 (10H)-one]: under setting [3], the IC50 is below 500 nM.

Take `CC#CCN1C(=O)c2ccccc2Sc2cc(NC3COCC3C#N)ccc21` (stereo not drawn) [4-((10-(But-2-yn-1-yl)-11-oxo-10,11-dihydrodibenzo[b,f][1,4]thiazepin-7-yl)amino)tetrahydrofuran-3-carbonitrile]: under setting [3], the IC50 is 1000 to 5000 nM.

Turning to `CC#CCN1C(=O)c2ccccc2Cc2cc(NCCCO)ccc21` [Table 6: —CH2CCMe; (CH2)3 OH; CH/CH; CH2], the IC50 under setting [8] was below 500 nM.

Regarding `CC#CCN1C(=O)c2ccc(F)cc2Sc2cc(NC(=O)[C@H]3C[C@H](OC)C3)cnc21` [—CH2CCMe; trans-3-MeOcBu; CF/CH; N], the IC50 was below 500 nM under setting [1] and below 500 nM under setting [4].
